How the values were obtained:
nucleolin = assay: Nucleolin expression in HB-19 treated MDA-MB-231 cells (immunoblot / immunofluorescence); assay type: cell-based, human; conditions: for reduction of surface/cytoplasmic nucleolin: 10 µM HB-19, 37°C, vs untreated, immunoblot band intensity
Method: Figure 2 HB-19 binds nucleolin expressed on the surface of tumor cells and causes reduction of cytoplasmic/surface but not nuclear nucleolin. (A) HB-19/Btn forms a stable complex with nucleolin expressed on the surface of cells. MDA-MB-231 cells were incubated (45 min, 20°C) with 0, 1, 2, 4, 8 and 12 µM of HB-19/Btn before preparation of surface/cytoplasmic (i.e., nucleus-free) and nuclear extracts, [28]. Samples of surface nucleolin (purified using surface/cytoplasmic extracts from 2×10^7 cells) and crude surface/cytoplasmic and nuclear extracts (from 2×10^6 cells) were analyzed by immunoblotting for the detection of nucleolin using mAb D3. (B) Specific reduction of surface/cytoplasmic nucleolin in HB-19 treated cells. MDA-MB-231 cells were cultured (at 37°C) with 10 µM of HB-19 for 4, 24 and 48 hours before preparation of cytoplasmic and nuclear extracts. Material from 2×10^6 cells (Untreated or HB-19 treated cells as indicated − or + signs, respectively) was analyzed by immunoblotting for the detection of nucleolin. Sections of the gel at the position of the nucleolin bands are presented. […] The intensity of nucleolin protein bands quantified by using the NIH image software indicated 75% and 93% reduction of surface/cytoplasmic nucleolin in HB-19 treated cells at 24 and 48 hours, respectively, compared to the corresponding untreated cells. (C) HB-19 binds the cell surface and enters in the cytoplasm but not the nucleus. MDA-MB-231 cells were incubated at 20°C (for HB-19 Binding) or 37°C (for HB-19 Entry) with 5 µM of HB-19/Btn for 1 hour before fixation in PFA or PFA-Triton, respectively. Fixed cells were successively incubated with rabbit anti-biotin and goat Texas Red-conjugated anti-rabbit IgG and the nuclei were colored with DAPI. Scans corresponding to the cross-section of cells are shown, each with or without the DAPI. (D) Nucleolar nucleolin is not affected in HB-19 treated cells. MDA-MB-231 cells cultured in the absence (Control Cells) or presence of 10 µM of HB-19 for 48 hours (HB-19 Treated Cells) were fixed in PFA-Triton and processed for fluorescence microscopy.
Cells washed in phosphate-buffered saline (PBS) were lysed in buffer E (20 mM Tris–HCl, pH 7.6, 150 mM NaCl, 5 mM MgCl2, 0.2 mM phenylmethylsulfonyl fluoride (PMSF), 5 mM β-mercaptoethanol, aprotinin (1000 U/ml) and 0.5% Triton X-100) and the nuclei were pelleted by centrifugation (1000g for 5 min). […] Aliquots of crude cell extracts were diluted in 2 fold concentrated electrophoresis sample buffer containing SDS, heated and analyzed by SDS- polyacrylamide gel electrophoresis (PAGE). […]

MDA-MB-231 cells = assay: BrdU incorporation and cell cycle analysis; assay type: cell-based, human; conditions: 10 µM HB-19, 48 hours, 10% FBS, compared to untreated cells
Method: Figure 5 Cell cycle perturbations induced by HB-19 treatment. (A) Analysis of cell cycle parameters in HB-19 treated cells. MDA-MB-231 cells were cultured for 48 hours in medium without FBS (starvation) or in medium containing 10% FBS supplemented or not with 10 µM HB-19. DNA synthesis was quantified after BrdU incorporation and staining with anti-BrdU antibody and 7-AAD, by FACScan analysis. The histograms indicate the relative amount of cells in G1, S and G2/M cell phases. […] Serum starved MDA-MB-231 cells were stimulated with 10% FBS in the absence or presence of 2, 5, and 10 µM of HB-19. Five minutes after serum stimulation, cells were lysed directly in electrophoresis sample buffer and processed for immunoblotting using anti-phospho-p42/44 ERK1/2 and anti-p42/44 ERK antibodies. NS stands for non-stimulated cells.
Cell cycle analysis was performed using the FITC-BrdU flow kit (#559619) kit from BD Bioscience Pharmingen, according to the manufacturer's instructions. Briefly, MDA-MB-231 cells (1×10^5) were seeded in 12-multiwell and incubated 24 hours for adhesion. Cells were treated with HB-19 for 48 hours and labeled with BrdU (10 µM, 1 hour, 37°C), then they were trypsinized, fixed and treated with DNase (300 µg/ml, 1 hour, 37°C) before staining with anti-BrdU-FITC antibody and 7-AAD reagent. Cells were analyzed on a Becton Dickinson FACScan (fluorescence activated cell sorter), on FL1-H and FL3-H parameters for FITC and 7-AAD fluorescent dye respectively.

athymic nude mice = assay: Toxicity observations in treated nude mice; conditions: HB-19, 3 times per week; data not shown

With “pseudo-tripeptide Lysψ(CH2N)-Pro-Arg coupled to a template (H2NLys-Lys-Lys-Gly-Pro-Lys-Glu-Lys-AhxCONH2) [HB-19]” the “level and nucleolar localization of nuclear nucleolin” value (nucleolin; 10 µM HB-19, 24–48 hours) was “without apparent modification”, the “reduction of surface/cytoplasmic nucleolin” value (nucleolin; 24 hours) was 75% and the “reduction of surface/cytoplasmic nucleolin” value (nucleolin; 48 hours) was 93%. For the same substance, the “expression of other cytoplasmic proteins” value (nucleolin; 10 µM HB-19, stained gel) was “not affected”, the “decrease of cells in S phase” value (MDA-MB-231 cells) was 62% and the “increase of cells in G1 phase” value (MDA-MB-231 cells) was 9%. For the same substance, the “increase of cells in G2/M phase” value (MDA-MB-231 cells) was 31% and the evidence of toxicity (athymic nude mice) was “nor induced any evidence of toxicity such as diarrhea, infection, weakness, or lethargy”.
